# In BindingDB's records for doi:10.1111/j.1471-4159.1990.tb04946.x (Schering-Plough Research Institute, 1990):
# Target: Hrh3 protein (Rattus norvegicus, UniProt Q5PPG3)
# Sequence (Q5PPG3 whole entry): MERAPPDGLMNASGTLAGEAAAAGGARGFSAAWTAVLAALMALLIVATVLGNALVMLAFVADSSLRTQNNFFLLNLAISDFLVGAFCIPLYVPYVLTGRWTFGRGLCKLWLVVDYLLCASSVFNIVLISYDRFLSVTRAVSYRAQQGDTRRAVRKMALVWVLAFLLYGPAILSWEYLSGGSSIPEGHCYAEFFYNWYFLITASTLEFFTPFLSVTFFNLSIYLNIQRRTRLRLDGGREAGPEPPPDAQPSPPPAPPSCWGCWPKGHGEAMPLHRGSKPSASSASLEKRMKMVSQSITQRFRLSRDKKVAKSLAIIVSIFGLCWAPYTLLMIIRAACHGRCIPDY
smiles,measurement,value
C[C@@H](N)Cc1c[nH]cn1,Ki,1.2 nM
CN(C)CCC(c1ccc(Cl)cc1)c1ccccn1 (centres undefined) [clorfeniramina],Ki,> 10000 nM
Cc1[nH]cnc1CSCCNC(=N)NCCCc1c[nH]cn1 [2-[3-(1H-imidazol-5-yl)propyl]-1-(2-{[(5-methyl-1H-imidazol-4-yl)methyl]sulfanyl}ethyl)guanidine],Ki,46 nM
CN/C(=N/CCSCc1nc[nH]c1C)NC#N,Ki,8000 nM
CNC(=NCCSCc1csc(N=C(N)N)n1)NC#N [[3H]tiotidine],Ki,> 10000 nM
CNCCc1c[nH]cn1 [N(alpha)-Methylhistamine],Ki,0.45 nM
S=C(NC1CCCCC1)N1CCC(c2cnc[nH]2)CC1,Ki,16 nM
c1c[nH]cn1,Ki,> 10000 nM
NCCc1c[nH]cn1 [[3H]histamine],Ki,11 nM
COc1ccc(CN(CCN(C)C)c2ccccn2)cc1,Ki,> 10000 nM
CN/C([CH-][N+](=O)[O-])=[NH+]\CCSCc1ccc(CN(C)C)o1,Ki,> 10000 nM
CN(C)CCCSC(=N)N [[3-(carbamimidoylsulfanyl)propyl]dimethylamine],Ki,440 nM
C/N=C(\S)NCCSCc1[nH]cnc1C [CAS_34839-70-8],Ki,> 10000 nM
NC(Cc1c[nH]cn1)C(=O)O (centres undefined) [NSC_773],Ki,> 10000 nM
